# According to the supplement of paper PMC10733146:
# Columns and labels:
# Assay in all cases: viability relative to DMSO control (fraction); higher = less drug effect (more viable cells)
# Details in all cases: 48 h
# [1] = system: primary AML patient cells (S091)
# In short: (§1)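 Compounds were pre-plated at five concentrations, one well each, in 384-well plates, and primary mononuclear tumour cells were plated on them at 4 × 10^4 cells per well. The cells, fresh or cryopreserved, had been Ficoll-isolated from blood or bone marrow or taken from processed lymph node. After 48 h at 37 °C and 5% CO2 in RPMI-1640 with penicillin/streptomycin, L-glutamine and human serum, viability was read as CellTiter-Glo luminescence relative to the median of 16 inner DMSO wells.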
# [2] = system: primary AML patient cells (S019)
# In short: as §1
# [3] = system: primary FL patient cells (S087)
# In short: as §1
# [4] = system: primary AML patient cells (S072)
# In short: as §1
# [5] = system: primary AML patient cells (S025)
# In short: as §1
# [6] = system: primary B-PLL patient cells (S016)
# In short: as §1
# [7] = system: primary AML patient cells (S089)
# In short: as §1
# [8] = system: primary AML patient cells (S002)
# In short: as §1
# [9] = system: primary FL patient cells (S022)
# In short: as §1
# [10] = system: primary AML patient cells (S009)
# In short: as §1
# [11] = system: primary AML patient cells (S017)
# In short: as §1
# [12] = system: primary AML patient cells (S071)
# In short: as §1
# [13] = system: primary AML patient cells (S079)
# In short: as §1
# [14] = system: primary MCL patient cells (S053)
# In short: as §1
# [15] = system: primary ALL patient cells (S048)
# In short: as §1
# [16] = system: primary DLBCL patient cells (S082)
# In short: as §1
# [17] = system: primary ALL patient cells (S088)
# In short: as §1
# [18] = system: primary AML patient cells (S060)
# In short: as §1
# [19] = system: primary AML patient cells (S021)
# In short: as §1
smiles,measurement,setting,value
Cc1nc(Nc2ncc(C(=O)Nc3c(C)cccc3Cl)s2)cc(N2CCN(CCO)CC2)n1 [Dasatinib],viability,[1]; 0.0016 µM,0.951
same,viability,[1]; 0.008 µM,0.924
same,viability,[1]; 0.04 µM,0.787
same,viability,[1]; 0.2 µM,0.784
same,viability,[1]; 1 µM,1.29
same,viability,[2]; 0.0016 µM,1.14
same,viability,[2]; 0.008 µM,1.14
same,viability,[2]; 0.04 µM,1.07
same,viability,[2]; 0.2 µM,0.986
same,viability,[2]; 1 µM,1.02
same,viability,[3]; 0.0016 µM,0.914
same,viability,[3]; 0.008 µM,0.782
same,viability,[3]; 0.04 µM,0.747
same,viability,[3]; 0.2 µM,0.753
same,viability,[3]; 1 µM,0.742
same,viability,[4]; 0.0016 µM,0.945
same,viability,[4]; 0.008 µM,0.851
same,viability,[4]; 0.04 µM,0.712
same,viability,[4]; 0.2 µM,0.623
same,viability,[4]; 1 µM,0.704
same,viability,[5]; 0.0016 µM,0.961
same,viability,[5]; 0.008 µM,1.02
same,viability,[5]; 0.04 µM,0.978
same,viability,[5]; 0.2 µM,0.965
same,viability,[5]; 1 µM,1.14
same,viability,[6]; 0.0016 µM,0.693
same,viability,[6]; 0.008 µM,0.45
same,viability,[6]; 0.04 µM,0.397
same,viability,[6]; 0.2 µM,0.368
same,viability,[6]; 1 µM,0.445
same,viability,[7]; 0.0016 µM,0.976
same,viability,[7]; 0.008 µM,1.03
same,viability,[7]; 0.04 µM,0.576
same,viability,[7]; 0.2 µM,0.504
same,viability,[7]; 1 µM,0.537
same,viability,[8]; 0.0016 µM,0.979
same,viability,[8]; 0.008 µM,1.04
same,viability,[8]; 0.04 µM,0.799
same,viability,[8]; 0.2 µM,0.764
same,viability,[8]; 1 µM,1.04
same,viability,[9]; 0.0016 µM,0.931
same,viability,[9]; 0.008 µM,0.857
same,viability,[9]; 0.04 µM,0.841
same,viability,[9]; 0.2 µM,0.773
same,viability,[9]; 1 µM,0.698
same,viability,[10]; 0.0016 µM,0.987
same,viability,[10]; 0.008 µM,0.965
same,viability,[10]; 0.04 µM,0.993
same,viability,[10]; 0.2 µM,0.972
same,viability,[10]; 1 µM,1
same,viability,[11]; 0.0016 µM,0.997
same,viability,[11]; 0.008 µM,0.859
same,viability,[11]; 0.04 µM,0.654
same,viability,[11]; 0.2 µM,0.689
same,viability,[11]; 1 µM,0.711
same,viability,[12]; 0.0016 µM,1.04
same,viability,[12]; 0.008 µM,1.05
same,viability,[12]; 0.04 µM,1
same,viability,[12]; 0.2 µM,0.948
same,viability,[12]; 1 µM,0.951
same,viability,[13]; 0.0016 µM,0.973
same,viability,[13]; 0.008 µM,0.911
same,viability,[13]; 0.04 µM,0.863
same,viability,[13]; 0.2 µM,0.812
same,viability,[13]; 1 µM,1.04
same,viability,[14]; 0.0016 µM,1.14
same,viability,[14]; 0.008 µM,0.882
same,viability,[14]; 0.04 µM,0.494
same,viability,[14]; 0.2 µM,0.342
same,viability,[14]; 1 µM,0.347
same,viability,[15]; 0.0016 µM,1.05
same,viability,[15]; 0.008 µM,0.937
same,viability,[15]; 0.04 µM,0.911
same,viability,[15]; 0.2 µM,0.864
same,viability,[15]; 1 µM,0.926
same,viability,[16]; 0.0016 µM,0.966
same,viability,[16]; 0.008 µM,0.847
same,viability,[16]; 0.04 µM,0.643
same,viability,[16]; 0.2 µM,0.298
same,viability,[16]; 1 µM,0.0983
same,viability,[17]; 0.0016 µM,0.899
same,viability,[17]; 0.008 µM,0.709
same,viability,[17]; 0.04 µM,0.62
same,viability,[17]; 0.2 µM,0.545
same,viability,[17]; 1 µM,0.631
same,viability,[18]; 0.0016 µM,1.02
same,viability,[18]; 0.008 µM,1.03
same,viability,[18]; 0.04 µM,0.901
same,viability,[18]; 0.2 µM,0.891
same,viability,[18]; 1 µM,0.638
same,viability,[19]; 0.0016 µM,0.964
same,viability,[19]; 0.008 µM,0.799
same,viability,[19]; 0.04 µM,0.73
same,viability,[19]; 0.2 µM,0.615
same,viability,[19]; 1 µM,0.638
